Data as given in ChEMBL document CHEMBL1144516, “Synthesis and biological activities of analogs of D-glucosyl-l-tyrosine, a humoral factor that stimulates transcription of the acyl-CoA binding protein in the pheromone gland of the Silkmoth, Bombyx mori” (Bioorg Med Chem, 2007).
Calls of active or inactive are those of the source. The calls are words filed in the database; no cut-off is given here.

These molecules were tested on Bombyx mori (assay: Stimulation of transcription of acyl-CoA binding protein in pheromone gland of Silkmoth P50 at 0.2 mg after 18 hrs).
Type: functional, organism-based

Row | SMILES | Activity
1 | N[C@@H](Cc1ccc(O[C@H]2O[C@@H](CO)[C@H](O)[C@@H](O)[C@@H]2O)cc1)C(=O)O | inactive
2 | N[C@H](Cc1ccc(O[C@@H]2O[C@H](CO)[C@H](O)[C@H](O)[C@H]2O)cc1)C(=O)O | inactive
3 | N[C@@H](Cc1ccc(O[C@@H]2O[C@H](CO)[C@H](O)[C@H](O)[C@H]2O)cc1)C(=O)O | Active
4 | N[C@H](Cc1ccc(OC2O[C@H](CO)[C@@H](O)[C@H](O)[C@H]2O)cc1)C(=O)O (stereo not given in full) | inactive
5 | N[C@H](Cc1ccc(O[C@H]2O[C@@H](CO)[C@H](O)[C@@H](O)[C@@H]2O)cc1)C(=O)O | inactive
